# Results reported in patent US10131652B2, “Pyrimidinyloxy benzene derivatives as herbicides” (E. I. DU PONT DE NEMOURS AND COMPANY, priority 2014, dated 2018).
# How the values were obtained:
# Assay type in all cases: in vivo
# [1] = tested on: ducksalad (Heteranthera limosa); assay: Test C flooded paddy test plant response; settings: Flood, 250 g ai/ha; scale of 0 to 100 where 0 is no effect and 100 is complete control; 13 to 15 days
# Method in brief: (§1)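 Plants grown to the 2-leaf stage; pots flooded to 3 cm above soil, test compounds applied directly to paddy water, depth maintained throughout. Greenhouse for 13 to 15 days, then visual rating versus controls on a 0–100 scale (0 no effect, 100 complete control).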
# [2] = tested on: barnyardgrass (Echinochloa crus-galli); assay: Test C flooded paddy test plant response; settings: Flood, 250 g ai/ha; scale of 0 to 100 where 0 is no effect and 100 is complete control; 13 to 15 days
# Method in brief: as §1
# rice (Oryza sativa) = assay: Test C flooded paddy test plant response; settings: Flood, 250 g ai/ha; scale of 0 to 100 where 0 is no effect and 100 is complete control; 13 to 15 days
# Method in brief: as §1
# [3] = tested on: small-flower umbrella sedge (Cyperus difformis); assay: Test C flooded paddy test plant response; settings: Flood, 250 g ai/ha; scale of 0 to 100 where 0 is no effect and 100 is complete control; 13 to 15 days
# Method in brief: as §1
# [4] = tested on: wheat (Triticum aestivum); assay: Test B pre-/postemergence plant response
# Method in brief: (§2)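 Evaluation is visual, about 10 days after application, rating injury from 0 (none) to 100 (complete control) relative to untreated controls. Application was a preemergence soil spray on seeded pots or a postemergence spray on one- to two-leaf plants.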
# [5] = tested on: ragweed (common ragweed, Ambrosia elatior); assay: Test B pre-/postemergence plant response
# Method in brief: as §2
# [6] = tested on: giant foxtail (Setaria faberii); assay: Test B pre-/postemergence plant response
# Method in brief: as §2
# corn (Zea mays) = assay: Test B pre-/postemergence plant response
# Method in brief: as §2
# [7] = tested on: Italian ryegrass (Lolium multiflorum); assay: Test B pre-/postemergence plant response
# Method in brief: as §2
# [8] = tested on: pigweed (Amaranthus retroflexus); assay: Test B pre-/postemergence plant response
# Method in brief: as §2
# [9] = tested on: barnyardgrass (Echinochloa crus-galli); assay: Test B pre-/postemergence plant response
# Method in brief: as §2
# kochia (Kochia scoparia) = assay: Test B pre-/postemergence plant response
# Method in brief: as §2
# [10] = tested on: galium (catchweed bedstraw, Galium aparine); assay: Test B postemergence plant response
# Method in brief: (§3)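 Values are visual control ratings (0 to 100) recorded approximately 10 days after postemergence application to greenhouse-grown plants of 2 to 10 cm, one- to two-leaf stage, each judged against untreated controls.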
# [11] = tested on: blackgrass (Alopecurus myosuroides); assay: Test B postemergence plant response
# Method in brief: as §3
# [12] = 125 g ai/ha, postemergence, 0 to 100 scale, 0 no effect, 100 complete control
# [13] = Postemergence, 31 g ai/ha, 0 to 100 scale (0 no effect, 100 complete control)
# [14] = 31 g ai/ha, Preemergence, 0 to 100 scale where 0 is no effect and 100 is complete control
# [15] = Preemergence, 125 g ai/ha, 0 to 100 scale (0 no effect, 100 complete control)
# [16] = 31 g ai/ha, Postemergence, 0 to 100 scale, 0 no effect, 100 complete control
# [17] = Postemergence, 1000 g ai/ha, 0 to 100 scale (0 no effect, 100 complete control)
# [18] = Preemergence, 1000 g ai/ha, 0 to 100 scale (0 no effect, 100 complete control)
SMILES,Ducksalad plant response rating [1],Barnyardgrass plant response rating [2],Rice plant response rating (rice (Oryza sativa)),"Sedge, Umbrella plant response rating [3]","Plant response rating, Wheat [4, 12]","Plant response rating, Ragweed [5, 14]","Plant response rating, Ragweed [5, 12]","Ragweed plant response rating [5, 15]","Plant response rating, Foxtail, Giant [6, 14]","Plant response rating, Foxtail, Giant [6, 12]","Foxtail, Giant plant response rating [6, 15]","Plant response rating, Corn (corn (Zea mays); [12])","Plant response rating, Ryegrass, Italian [7, 14]","Plant response rating, Ryegrass, Italian [7, 12]","Ryegrass, Italian plant response rating [7, 15]","Plant response rating, Pigweed [8, 14]","Plant response rating, Pigweed [8, 12]","Pigweed plant response rating [8, 15]","Plant response rating, Barnyardgrass [9, 14]","Plant response rating, Barnyardgrass [9, 12]",further results
COc1cnc(Oc2ccccc2-c2cc(C(F)F)no2)nc1 [Compound 213],75,0,0,0,10,0,60,0,0,20,80,10,0,0,0,80,80,100,0,0,"Plant response rating, Wheat [4, 13]: 0; Plant response rating, Ragweed [5, 13]: 10; Plant response rating, Foxtail, Giant [6, 13]: 0; Plant response rating, Corn (corn (Zea mays); [13]): 0; Plant response rating, Ryegrass, Italian [7, 13]: 0; Plant response rating, Pigweed [8, 13]: 30; Plant response rating, Barnyardgrass [9, 13]: 0; Barnyardgrass plant response rating [9, 15]: 40; Plant response rating, Kochia (kochia (Kochia scoparia); [14]): 10; Plant response rating, Kochia (kochia (Kochia scoparia); [12]): 100; Plant response rating, Kochia (kochia (Kochia scoparia); [13]): 60; Kochia plant response rating (kochia (Kochia scoparia); [15]): 50; Plant response rating, Galium [10, 12]: 80; Plant response rating, Galium [10, 13]: 50; Plant response rating, Blackgrass [11, 12]: 10; Plant response rating, Blackgrass [11, 13]: 0"
Clc1cnc(Oc2ccccc2-c2cocn2)nc1 [Compound 214],0,0,0,0,0,0,0,0,0,0,0,0,0,0,0,0,10,0,0,0,"Plant response rating, Wheat [4, 13]: 0; Plant response rating, Ragweed [5, 13]: 0; Plant response rating, Foxtail, Giant [6, 13]: 0; Plant response rating, Corn (corn (Zea mays); [13]): 0; Plant response rating, Ryegrass, Italian [7, 13]: 0; Plant response rating, Pigweed [8, 13]: 0; Plant response rating, Barnyardgrass [9, 13]: 0; Barnyardgrass plant response rating [9, 15]: 0; Plant response rating, Kochia (kochia (Kochia scoparia); [14]): 0; Plant response rating, Kochia (kochia (Kochia scoparia); [12]): 0; Plant response rating, Kochia (kochia (Kochia scoparia); [13]): 0; Kochia plant response rating (kochia (Kochia scoparia); [15]): 0; Plant response rating, Galium [10, 12]: 10; Plant response rating, Galium [10, 13]: 0; Plant response rating, Blackgrass [11, 12]: 0; Plant response rating, Blackgrass [11, 13]: 0"
FC(F)Oc1cccc(Oc2ncc(Cl)cn2)c1-c1cc(C(F)F)no1 [Compound 132],40,30,20,75,10,0,30,40,60,70,90,30,0,40,30,90,100,100,20,50,"Plant response rating, Foxtail, Giant [6, 16]: 30; Plant response rating, Corn (corn (Zea mays); [16]): 10; Plant response rating, Barnyardgrass [9, 16]: 20; Barnyardgrass plant response rating [9, 15]: 60; Plant response rating, Kochia (kochia (Kochia scoparia); [14]): 0; Plant response rating, Kochia (kochia (Kochia scoparia); [12]): 60; Kochia plant response rating (kochia (Kochia scoparia); [15]): 0; Plant response rating, Galium [10, 12]: 90; Plant response rating, Blackgrass [11, 16]: 20; Plant response rating, Blackgrass [11, 12]: 50"
CC(=O)c1cc(-c2ccccc2Oc2ncc(Cl)cn2)on1 [Compound 218],0,0,0,0,0,0,0,0,0,0,60,0,0,0,0,0,40,90,0,0,"Plant response rating, Wheat [4, 13]: 0; Plant response rating, Ragweed [5, 13]: 0; Plant response rating, Foxtail, Giant [6, 13]: 0; Plant response rating, Corn (corn (Zea mays); [13]): 0; Plant response rating, Ryegrass, Italian [7, 13]: 0; Plant response rating, Pigweed [8, 13]: 0; Plant response rating, Barnyardgrass [9, 13]: 0; Barnyardgrass plant response rating [9, 15]: 50; Plant response rating, Kochia (kochia (Kochia scoparia); [14]): 0; Plant response rating, Kochia (kochia (Kochia scoparia); [12]): 0; Plant response rating, Kochia (kochia (Kochia scoparia); [13]): 0; Kochia plant response rating (kochia (Kochia scoparia); [15]): 0; Plant response rating, Galium [10, 12]: 10; Plant response rating, Galium [10, 13]: 0; Plant response rating, Blackgrass [11, 12]: 0; Plant response rating, Blackgrass [11, 13]: 0"
Fc1cnc(Oc2cccc(F)c2-c2cnccn2)nc1 [Compound 166],0,0,0,0,0,0,30,20,0,0,0,10,0,0,0,40,30,60,0,0,"Plant response rating, Wheat [4, 13]: 0; Plant response rating, Ragweed [5, 13]: 10; Plant response rating, Foxtail, Giant [6, 13]: 0; Plant response rating, Corn (corn (Zea mays); [13]): 0; Plant response rating, Ryegrass, Italian [7, 13]: 0; Plant response rating, Pigweed [8, 13]: 20; Plant response rating, Barnyardgrass [9, 13]: 0; Barnyardgrass plant response rating [9, 15]: 0; Plant response rating, Kochia (kochia (Kochia scoparia); [14]): 0; Plant response rating, Kochia (kochia (Kochia scoparia); [12]): 0; Plant response rating, Kochia (kochia (Kochia scoparia); [13]): 0; Kochia plant response rating (kochia (Kochia scoparia); [15]): 0; Plant response rating, Galium [10, 12]: 30; Plant response rating, Galium [10, 13]: 20; Plant response rating, Blackgrass [11, 12]: 0; Plant response rating, Blackgrass [11, 13]: 0"
Cc1cnc(Oc2ccccc2-c2cc(Cl)sn2)nc1 [Compound 194],80,0,0,0,–,–,–,–,–,–,–,–,–,–,–,–,–,–,–,–,"Plant response rating, Wheat [4, 17]: 20; Plant response rating, Ragweed [5, 17]: 80; Plant response rating, Ragweed [5, 18]: 30; Plant response rating, Foxtail, Giant [6, 17]: 90; Plant response rating, Foxtail, Giant [6, 18]: 100; Plant response rating, Corn (corn (Zea mays); [17]): 60; Plant response rating, Ryegrass, Italian [7, 17]: 50; Plant response rating, Ryegrass, Italian [7, 18]: 50; Plant response rating, Pigweed [8, 17]: 90; Plant response rating, Pigweed [8, 18]: 100; Plant response rating, Barnyardgrass [9, 17]: 100; Plant response rating, Barnyardgrass [9, 18]: 100; Plant response rating, Kochia (kochia (Kochia scoparia); [17]): 100; Plant response rating, Kochia (kochia (Kochia scoparia); [18]): 100; Plant response rating, Galium [10, 17]: 100; Plant response rating, Blackgrass [11, 17]: 90"
